Experimental findings from US10537558B2 (Bantam Pharmaceutical, LLC, priority 2015, dated 2020) are described below.

The subject of the assay is BJAB cells. Kind of assay: BJAB cell proliferation (Cell Titer Glo). The class given is cell-based. The following applies: Homo sapiens, read-out: EC50. On the procedure: Cells were seeded in white Corning Costar 96-well assay plates at 2500 cells/well in 50 μL of medium. Serial dilutions of test compounds were made in cell culture medium/FBS+0.2% DMSO, and transferred to assay plates in a volume of 50 μL (DMSO at 0.1% final). Plates were maintained at 37° C. for approximately 72 hours. The effect of compounds on cell proliferation was evaluated using the Cell Titer Glo reagent (Promega), according to the manufacturer's instructions. Briefly, 100 μL of reagent was added per well, and after a 10 minute incubation luminescence values were determined on a plate reader (Tecan F200PRO). The percent of luminescence signal relative to untreated controls was calculated for each compound concentration, and EC50 values were determined from dose response data by non-linear regression analysis using Prism (GraphPad). The mTor inhibitor Torin1 (Liu, et al. (2010) J. Med. Chem. 53, 7146.) was used as a control. The data are summarized in the compound table provided above.
For `COC(=O)c1c(Cc2ccccc2[N+](=O)[O-])c(C)nn1-c1nc(-c2ccc(Cl)c(Cl)c2)cs1` [Compound 1, methyl 1-(4-(3,4-dichlorophenyl)thiazol-2-yl)-3-methyl-4-(2-nitrobenzyl)-1H-pyrazole-5-carboxylate], the EC50 (usually the midpoint of the concentration-response curve) is greater than 50 µM.
Then `Cc1nn(-c2nc(-c3ccc(Cl)c(Cl)c3)cs2)c(C(=O)O)c1Cc1ccccc1[N+](=O)[O-]` [Compound 2, 1-(4-(3,4-dichlorophenyl)thiazol-2-yl)-3-methyl-4-(2-nitrobenzyl)-1H-pyrazole-5-carboxylic acid], with greater than 50 µM.
For `CCSc1sc(-n2nc(C)c(Cc3ccccc3[N+](=O)[O-])c2C(=O)OC)nc1-c1ccc(Cl)c(Cl)c1` [Compound 3, methyl 1-(4-(3,4-dichlorophenyl)-5-(ethylthio)thiazol-2-yl)-3-methyl-4-(2-nitrobenzyl)-1H-pyrazole-5-carboxylate] the value was greater than 80 µM; for `CCSc1sc(-n2nc(C)c(Cc3ccccc3[N+](=O)[O-])c2C(=O)O)nc1-c1ccc(Cl)c(Cl)c1` [Compound 4, 1-(4-(3,4-dichlorophenyl)-5-(ethylthio)thiazol-2-yl)-3-methyl-4-(2-nitrobenzyl)-1H-pyrazole-5-carboxylic Acid], 50 to 100 µM; for `COC(=O)c1c(Cc2ccccc2[N+](=O)[O-])c(C)nn1-c1nc(-c2ccc(Cl)c(Cl)c2)c(SC(C)C)s1` [Compound 5, methyl 1-(4-(3,4-dichlorophenyl)-5-(isopropylthio)thiazol-2-yl)-3-methyl-4-(2-nitrobenzyl)-1H-pyrazole-5-carboxylate], greater than 80 µM.
In the case of `Cc1nn(-c2nc(-c3ccc(Cl)c(Cl)c3)c(SC(C)C)s2)c(C(=O)O)c1Cc1ccccc1[N+](=O)[O-]` [Compound 6, 1-(4-(3,4-dichlorophenyl)-5-(isopropylthio)thiazol-2-yl)-3-methyl-4-(2-nitrobenzyl)-1H-pyrazole-5-carboxylic acid], the EC50 fell in the range of 25 to 50 µM.
For `COC(=O)c1c(Cc2ccccc2NS(C)(=O)=O)c(C)nn1-c1nc(-c2ccc(Cl)c(Cl)c2)cs1` [Compound 7, methyl 1-(4-(3,4-dichlorophenyl)thiazol-2-yl)-3-methyl-4-(2-(methylsulfonamido)benzyl)-1H-pyrazole-5-carboxylate], the half-maximal effective concentration (EC50) was greater than 80 µM.
Then `Cc1nn(-c2nc(-c3ccc(Cl)c(Cl)c3)cs2)c(C(=O)O)c1Cc1ccccc1NS(C)(=O)=O` [Compound 8, 1-(4-(3,4-dichlorophenyl)thiazol-2-yl)-3-methyl-4-(2-(methylsulfonamido)benzyl)-1H-pyrazole-5-carboxylic acid], with greater than 80 µM; and `CCCSc1sc(-n2nc(C)c(Cc3ccccc3[N+](=O)[O-])c2C(=O)OC)nc1-c1ccc(Cl)c(Cl)c1` [Compound 9, methyl 1-(4-(3,4-dichlorophenyl)-5-(propylthio)thiazol-2-yl)-3-methyl-4-(2-nitrobenzyl)-1H-pyrazole-5-carboxylate], with greater than 80 µM; and `CCCSc1sc(-n2nc(C)c(Cc3ccccc3[N+](=O)[O-])c2C(=O)O)nc1-c1ccc(Cl)c(Cl)c1` [Compound 10, 1-(4-(3,4-dichlorophenyl)-5-(propylthio)thiazol-2-yl)-3-methyl-4-(2-nitrobenzyl)-1H-pyrazole-5-carboxylic acid], with 25 to 50 µM.
Then `CCCCSc1sc(-n2nc(C)c(Cc3ccccc3[N+](=O)[O-])c2C(=O)OC)nc1-c1ccc(Cl)c(Cl)c1` [Compound 11, methyl 1-(5-(butylthio)-4-(3,4-dichlorophenyl)thiazol-2-yl)-3-methyl-4-(2-nitrobenzyl)-1H-pyrazole-5-carboxylate], with greater than 80 µM; and `CCCCSc1sc(-n2nc(C)c(Cc3ccccc3[N+](=O)[O-])c2C(=O)O)nc1-c1ccc(Cl)c(Cl)c1` [Compound 12, 1-(5-(butylthio)-4-(3,4-dichlorophenyl)thiazol-2-yl)-3-methyl-4-(2-nitrobenzyl)-1H-pyrazole-5-carboxylic Acid], with greater than 80 µM; and `CCCSc1sc(-n2nc(C)c(Cc3ccccc3NS(C)(=O)=O)c2C(=O)O)nc1-c1ccc(Cl)c(Cl)c1` [Compound 13, 1-(4-(3,4-dichlorophenyl)-5-(propylthio)thiazol-2-yl)-3-methyl-4-(2-(methylsulfonamido)benzyl)-1H-pyrazole-5-carboxylic Acid], with 25 to 50 µM.
Then `CCCSc1sc(-n2nc(C)c(Cc3ccccc3NS(C)(=O)=O)c2C(=O)N2CCC(CN)CC2)nc1-c1ccc(Cl)c(Cl)c1` [Compound 14, N-(2-((5-(4-(aminomethyl)piperidine-1-carbonyl)-1-(4-(3,4-dichlorophenyl)-5-(propylthio)thiazol-2-yl)-3-methyl-1H-pyrazol-4-yl)methyl)phenyl)methanesulfonamide], with 10 to 25 µM.
Consider `Cc1nn(-c2nc(-c3ccc(Cl)c(Cl)c3)c(SC(C)C)s2)c(C(=O)O)c1Br` [Compound 15, 4-bromo-1-(4-(3,4-dichlorophenyl)-5-(isopropylthio)thiazol-2-yl)-3-methyl-1H-pyrazole-5-carboxylic Acid], for which the concentration giving a half-maximal response (EC50) lay in the range of 10 to 25 µM.
Then `Cc1cc(C(=O)O)n(-c2nc(-c3ccc(Cl)c(Cl)c3)c(SC(C)C)s2)n1` [Compound 16, 1-(4-(3,4-dichlorophenyl)-5-(isopropylthio)thiazol-2-yl)-3-methyl-1H-pyrazole-5-carboxylic Acid], with 50 to 100 µM; and `Cc1nn(-c2nc(-c3ccc(Cl)c(Cl)c3)c(SC(C)C)s2)c(C(=O)O)c1-c1ccc2nccn2c1` [Compound 17, 1-(4-(3,4-dichlorophenyl)-5-(isopropylthio)thiazol-2-yl)-4-(imidazo[1,2-a]pyridin-6-yl)-3-methyl-1H-pyrazole-5-carboxylic Acid], with 10 to 25 µM; and `Cc1nn(-c2nc(-c3ccc(Cl)c(Cl)c3)c(SC(C)C)s2)c(C(=O)O)c1-c1ccccc1` [Compound 18, 1-(4-(3,4-dichlorophenyl)-5-(isopropylthio)thiazol-2-yl)-3-methyl-4-phenyl-1H-pyrazole-5-carboxylic Acid], with 1 to 5 µM.
`Cc1nn(-c2nc(-c3ccc(Cl)c(Cl)c3)c(SC3CCCCC3)s2)c(C(=O)O)c1Cc1ccccc1[N+](=O)[O-]` [Compound 19, 1-(5-(cyclohexylthio)-4-(3,4-dichlorophenyl)thiazol-2-yl)-3-methyl-4-(2-nitrobenzyl)-1H-pyrazole-5-carboxylic Acid]: the half-maximal effective concentration (EC50) was 10 to 25 µM.
On to `Cc1nn(-c2nc(-c3ccc(Cl)c(Cl)c3)c(SC(C)C)s2)c(C(=O)O)c1-c1cc2ccccc2o1` [Compound 20, 4-(benzofuran-2-yl)-1-(4-(3,4-dichlorophenyl)-5-(isopropylthio)thiazol-2-yl)-3-methyl-1H-pyrazole-5-carboxylic Acid], for which the 50% effective concentration (EC50) lay in the range of 5 to 10 µM.
For `Cc1nn(-c2nc(-c3ccc(Cl)c(Cl)c3)c(SC(C)C)s2)c(C(=O)O)c1-c1ccnc(F)c1` [Compound 21, 1-(4-(3,4-dichlorophenyl)-5-(isopropylthio)thiazol-2-yl)-4-(2-fluoropyridin-4-yl)-3-methyl-1H-pyrazole-5-carboxylic acid] the value was 5 to 10 µM.
As to `Cc1cc(-c2c(C)nn(-c3nc(-c4ccc(Cl)c(Cl)c4)c(SC(C)C)s3)c2C(=O)O)cc(C)n1` [Compound 23, 1-(4-(3,4-dichlorophenyl)-5-(isopropylthio)thiazol-2-yl)-4-(2,6-dimethylpyridin-4-yl)-3-methyl-1H-pyrazole-5-carboxylic Acid], the EC50 is less than 1 µM.
For the molecule `Cc1nn(-c2nc(-c3ccc(Cl)c(Cl)c3)c(SC(C)C)s2)c(C(=O)O)c1-c1cc(F)cc(F)c1` [Compound 24, 1-(4-(3,4-dichlorophenyl)-5-(isopropylthio)thiazol-2-yl)-4-(3,5-difluorophenyl)-3-methyl-1H-pyrazole-5-carboxylic Acid], the EC50 lay within 1 to 5 µM.
Then `Cc1nn(-c2nc(-c3cc(Cl)ccc3F)c(SC(C)C)s2)c(C(=O)O)c1-c1cc(Cl)cc(Cl)c1` [Compound 25, 1-(4-(5-chloro-2-fluorophenyl)-5-(isopropylthio)thiazol-2-yl)-4-(3,5-dichlorophenyl)-3-methyl-1H-pyrazole-5-carboxylic Acid], with 1 to 5 µM.
Regarding `Cc1cc(-c2c(C)nn(-c3nc(-c4cc(Cl)ccc4F)c(SC(C)C)s3)c2C(=O)O)cc(C)n1` [Compound 26, 1-(4-(5-chloro-2-fluorophenyl)-5-(isopropylthio)thiazol-2-yl)-4-(2,6-dimethylpyridin-4-yl)-3-methyl-1H-pyrazole-5-carboxylic Acid], the concentration giving a half-maximal response (EC50) fell in the range of 5 to 10 µM.
Then `Cc1noc(C)c1-c1nc(-n2nc(C)c(-c3cc(Cl)cc(Cl)c3)c2C(=O)O)sc1SC(C)C` [Compound 27, 4-(3,5-dichlorophenyl)-1-(4-(3,5-dimethylisoxazol-4-yl)-5-(isopropylthio)thiazol-2-yl)-3-methyl-1H-pyrazole-5-carboxylic Acid], with greater than 25 µM.
Then `Cc1nn(-c2nc(-c3cnn(C)c3)c(SC(C)C)s2)c(C(=O)O)c1-c1cc(Cl)cc(Cl)c1` [Compound 28, 4-(3,5-dichlorophenyl)-1-(5-(isopropylthio)-4-(1-methyl-1H-pyrazol-4-yl)thiazol-2-yl)-3-methyl-1H-pyrazole-5-carboxylic Acid], with greater than 25 µM; and `Cc1nn(-c2nc(-c3ccncc3)c(SC(C)C)s2)c(C(=O)O)c1-c1cc(Cl)cc(Cl)c1` [Compound 29, 4-(3,5-dichlorophenyl)-1-(5-(isopropylthio)-4-(pyridin-4-yl)thiazol-2-yl)-3-methyl-1H-pyrazole-5-carboxylic acid], with greater than 25 µM.
